Consider 14 molecules from patent US20230295201A1 (Gilead Sciences, Inc., priority 2020, published 2023).

Where two headings read alike, the source gives them in different places. Bounds are passed on as bounds.

Holding throughout (assay type): cell-based
For one assay, the system named is HCV replicon 1B. Kind of assay: HCV Rep 1B EC50 (replicon luciferase). As for the experimental part: (§1) Compounds were serially diluted in ten steps of 1:3 dilutions in 384-well plates. All serial dilutions were performed in four replicates per compound within the same 384-well plate. […] To each well of a black polystyrene 384-well plate (Greiner Bio-one, Monroe, NC), 90 μL of cell culture medium (without Geneticin) containing 2000 suspended HCV replicon cells was added with a Biotek μFlow workstation. For compound transfer into cell culture plates, 0.4 μL of compound solution from the compound serial dilution plate was transferred to the cell culture plate on a Biomek FX workstation. The DMSO concentration in the final assay wells was 0.44%. The plates were incubated for 3 days at 37° C. with 5% CO2 and 85% humidity. The HCV replicon assay was a multiplex assay, able to assess both cytotoxicity and antireplicon activity from the same well. The CC50 assay was performed first. The media in the 384-well cell culture plate was aspirated, and the wells were washed four times with 100 μL of PBS each, using a Biotek ELX405 plate washer. A volume of 50 μL of a solution containing 400 nM calcein AM (Anaspec, Fremont, CA) in 1×PBS was added to each well of the plate with a Biotek μFlow workstation. The plate was incubated for 30 min at room temperature before the fluorescence signal (excitation 490 nm, emission 520 nm) was measured with a Perkin-Elmer Envision plate reader. The EC50 assay was performed in the same wells as the CC50 assay. The calcein-PBS solution in the 384-well cell culture plate was aspirated with a Biotek ELX405 plate washer. A volume of 20 μL of Dual-Glo luciferase buffer (Promega, Madison, WI) was added to each well of the plate with a Biotek μFlow Workstation. The plate was incubated for 10 min at room temperature. A volume of 20 μL of a solution containing a 1:100 mixture of Dual-Glo Stop & Glo substrate (Promega, Madison, WI) and Dual-Glo Stop & Glo buffer (Promega, Madison, WI) was added to each well of the plate with a Biotek μFlow Workstation. The plate was then incubated at room temperature for 10 min before the luminescence signal was measured with a Perkin-Elmer Envision Plate Reader.

Another assay concerns HCV replicon 2A. Kind of assay: HCV Rep 2A EC50 (replicon luciferase). How it is done:
as §1
On the technique in general: In antiviral work, replicon cells carry a viral genome segment that copies itself.

Assay [1] relates to Dengue serotype 2 New Guinea C (NGC) strain. As to the kind of experiment: DENV-2 Huh-7 EC50 (qPCR in Huh7 cells). The gist of the method: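 Huh7 cells infected 2 h at 37 °C with DENV-2 NGC at MOI 0.1, then plated with graded compound doses (0.25% DMSO) in triplicate. After 48 h, viral RNA quantified by duplex TaqMan RT-qPCR against GAPDH; EC50 normalized to positive control and no-compound wells.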
A general note: In qPCR the cycle at which signal appears reflects the starting amount.

Assay [2] deals with Dengue 2, New Guinea strain (NGC). Kind of assay: DENV-2 moDC EC50 (qPCR in human monocyte-derived dendritic cells). As to conditions: moDCs. How it is done:
Human monocyte-derived dendritic cells (moDCs) were derived from CD14+ monocytes (AllCells) cultured in Human Mo-DC Differentiation medium containing GM-CSF and IL-4 (Miltenyi Biotec). On day 7, moDCs were harvested by mechanical disruption, washed and suspended in serum-free RPMI. moDCs were infected with Vero-derived Dengue 2, New Guinea strain (NGC) at a MOI=0.1 for two hours in serum-free RPMI with gentle agitation at 37° C. Cells were washed and resuspended in 10% serum-containing RPMI (Gibco, supplemented with sodium pyruvate, NEAA, Penicillin-Streptomycin). 10^5 cells were plated in triplicate in 96-well plates with compounds dispensed at graded doses (Hewlett-Packard D300 Digital Dispenser). All wells were normalized to 0.25% DMSO. At 48 hours, cells were washed with 1×PBS and all supernatants removed. Total RNA was extracted using RNEasy 96 plates (Qiagen) and used to generate first-strand cDNA using XLT cDNA 5× Supermix (QuantaBio). cDNA was used as a template in a Taqman qPCR duplex reaction specific to DENV2 viral and GAPDH gene expression. EC50 values were determined using Prism Graphpad software, with normalization to a positive control and no compound negative control wells.

Where [3] appears, read: Hepatitis C virus, 72 h, read-out: HCV Rep 1B EC50, replicon cells, 3 days.
[4] abbreviates: Hepatitis C virus, 72 h, read-out: HCV Rep 2A EC50, replicon cells, 3 days.
The mark [5] stands for this setting: Dengue virus, DENV2, Huh-7, 48 h.
[6] abbreviates: read-out: HCV Rep 1B EC50, replicon cells, 3 days.
The mark [7] stands for this setting: read-out: HCV Rep 2A EC50, replicon cells, 3 days.
[8] abbreviates: Dengue virus, DENV2, Dendritic cell, 48 h.

Regarding `CCC(CC)COC(=O)[C@H](CC)NP(=O)(OC[C@@]1(C#N)O[C@@H](c2ccc3c(N)ncnn23)[C@H](O)[C@@H]1O)Oc1ccccc1` (mixture of isomers) [Example 88, (2S)-2-ethylbutyl 2-(((((2R,3S,4R,5S)-5-(4-aminopyrrolo[2,1-f][1,2,4]triazin-7-yl)-2-cyano-3,4-dihydroxytetrahydrofuran-2-yl)methoxy)(phenoxy)phosphoryl)amino)butanoate], the results for the EC50 (in the assay on HCV replicon 1B (setting [3]); with HCV replicon 2A (setting [4]); in assay [1] (setting [5])) were 23700 nM, 27700 nM and over 25000 nM, respectively.
The corresponding values for `C[C@H](NP(=O)(OC[C@@]1(C#N)O[C@@H](c2ccc3c(N)ncnn23)[C@H](O)[C@@H]1O)Oc1ccccc1)C(=O)OCC1CCCCC1` (single isomer, unassigned) [Example 247] are 665 nM, 1680 nM and 1280 nM.
For the molecule `C[C@H](NP(=O)(OC[C@@]1(C#N)O[C@@H](c2ccc3c(N)ncnn23)[C@H](O)[C@@H]1O)Oc1ccccc1)C(=O)OCC1CCCCC1` (single isomer, unassigned) [Example 248], the EC50 in the assay on HCV replicon 1B (setting [6]) came out at 503 nM; with HCV replicon 2A (setting [7]) it was 1180 nM; in assay [1] (48 hours), 756 nM.
Take `C[C@H](NP(=O)(OC[C@@]1(C#N)O[C@@H](c2ccc3c(N)ncnn23)[C@H](O)[C@@H]1O)Oc1ccccc1)C(=O)OCCC(C)(C)C` (single isomer, unassigned) [Example 252]: the EC50 in the assay with HCV replicon 1B (setting [3]) is 624 nM; in the assay with HCV replicon 2A (setting [4]) it was 1650 nM; in assay [1] (setting [5]) it was 697 nM; in assay [2] (setting [8]) it was 284 nM.
`C[C@H](NP(=O)(OC[C@@]1(C#N)O[C@@H](c2ccc3c(N)ncnn23)[C@H](O)[C@@H]1O)Oc1ccccc1)C(=O)OCCC(C)(C)C` (single isomer, unassigned) [Example 253]: the concentration for a half-maximal effect (EC50) turned out to be 452 nM in the assay with HCV replicon 1B (setting [6]), 887 nM in the assay on HCV replicon 2A (setting [7]), 489 nM in assay [1] (48 hours) and 429 nM in assay [2] (48 hours).
As for `C[C@H](NP(=O)(OC[C@@]1(C#N)O[C@@H](c2ccc3c(N)ncnn23)[C@H](O)[C@@H]1O)Oc1ccccc1)C(=O)OC1CCCCC1` (stereo partly drawn) [Example 4, (2S)-cyclohexyl 2-(((((2R,3S,4R,5S)-5-(4-aminopyrrolo[2,1-f][1,2,4]triazin-7-yl)-2-cyano-3,4-dihydroxytetrahydrofuran-2-yl)methoxy)(phenoxy)phosphoryl)amino)propanoate], the results for the EC50 in the assay with HCV replicon 1B (setting [3]) and in the assay with HCV replicon 2A (setting [4]) were 52700 nM and 9200 nM, respectively.
Turning to `CCOC(=O)[C@H](C)N[P@](=O)(OC[C@@]1(C#N)O[C@@H](c2ccc3c(N)ncnn23)[C@H](O)[C@@H]1O)Oc1ccccc1` [Example 29, Ethyl ((S)-(((2R,3S,4R,5S)-5-(4-aminopyrrolo[2,1-f][1,2,4]triazin-7-yl)-2-cyano-3,4-dihydroxytetrahydrofuran-2-yl)methoxy)(phenoxy)phosphoryl)-L-alaninate], the EC50 was 1880 nM in assay [1] (setting [5]) and over 5000 nM in assay [2] (setting [8]).
Consider `COC(=O)[C@H](C)N[P@](=O)(OC[C@@]1(C#N)O[C@@H](c2ccc3c(N)ncnn23)[C@H](O)[C@@H]1O)Oc1ccccc1` [Example 52, methyl ((S)-(((2R,3S,4R,5S)-5-(4-aminopyrrolo[2,1-f][1,2,4]triazin-7-yl)-2-cyano-3,4-dihydroxytetrahydrofuran-2-yl)methoxy)(phenoxy)phosphoryl)-L-alaninate], for which the EC50 stood at 3960 nM in the assay with HCV replicon 1B (setting [3]), 7460 nM with HCV replicon 2A (setting [4]) and 5480 nM in assay [1] (setting [5]).
Take `C[C@H](NP(=O)(OC[C@@]1(C#N)O[C@@H](c2ccc3c(N)ncnn23)[C@H](O)[C@@H]1O)Oc1ccccc1)C(=O)OCC(C)(C)C` (stereo partly drawn) [Example 92, (2S)-neopentyl 2-(((((2R,3S,4R,5S)-5-(4-aminopyrrolo[2,1-f][1,2,4]triazin-7-yl)-2-cyano-3,4-dihydroxytetrahydrofuran-2-yl)methoxy)(phenoxy)phosphoryl)amino)propanoate]: the EC50 turned out to be 16500 nM in the assay on HCV replicon 1B (setting [3]) and 2900 nM in the assay with HCV replicon 2A (setting [4]).
Take `C[C@H](N[P@](=O)(OC[C@@]1(C#N)O[C@@H](c2ccc3c(N)ncnn23)[C@H](O)[C@@H]1O)Oc1ccccc1)C(=O)OCC(C)(C)C` [Example 94]: the EC50 on HCV replicon 1B (replicon cells, 3 days, read-out: HCV Rep 1B EC50) worked out at 278 nM; at HCV replicon 2A (replicon cells, 3 days, read-out: HCV Rep 2A EC50), 493 nM; in assay [1] (48 hours) it was 451 nM; in assay [2] (48 hours), 398 nM.
For `CCCCCCOC(=O)[C@H](C)NP(=O)(OC[C@@]1(C#N)O[C@@H](c2ccc3c(N)ncnn23)[C@H](O)[C@@H]1O)Oc1ccccc1` (stereo partly drawn) [Example 192, hexyl ((((2R,3S,4R,5S)-5-(4-aminopyrrolo[2,1-f][1,2,4]triazin-7-yl)-2-cyano-3,4-dihydroxytetrahydrofuran-2-yl)methoxy)(phenoxy)phosphoryl)-L-alaninate], the figures for the half-maximal effective concentration (EC50) in assay [1] (setting [5]) and in assay [2] (setting [8]) were 2760 nM and 534 nM, respectively.
Regarding `C[C@H](NP(=O)(OC[C@@]1(C#N)O[C@@H](c2ccc3c(N)ncnn23)[C@H](O)[C@@H]1O)Oc1cccc2ccccc12)C(=O)OC1CCCCC1` (stereo partly drawn) [Example 203, cyclohexyl ((((2R,3S,4R,5S)-5-(4-aminopyrrolo[2,1-f][1,2,4]triazin-7-yl)-2-cyano-3,4-dihydroxytetrahydrofuran-2-yl)methoxy)(naphthalen-1-yloxy)phosphoryl)-L-alaninate], the EC50 in the assay with HCV replicon 1B (setting [3]) was 332 nM; in the assay on HCV replicon 2A (setting [4]), 671 nM; in assay [1] (setting [5]), 1730 nM; in assay [2] (setting [8]), 599 nM.
The corresponding values for `C[C@H](NP(=O)(OC[C@@]1(C#N)O[C@@H](c2ccc3c(N)ncnn23)[C@H](O)[C@@H]1O)Oc1ccccc1)C(=O)OCCC(C)(C)C` (stereo partly drawn) [Example 251, 3,3-dimethylbutyl ((((2R,3S,4R,5S)-5-(4-aminopyrrolo[2,1-f][1,2,4]triazin-7-yl)-2-cyano-3,4-dihydroxytetrahydrofuran-2-yl)methoxy)(phenoxy)phosphoryl)-L-alaninate] are 595 nM, 1110 nM, 529 nM and 116 nM.
`CCC(C)(C)COC(=O)[C@H](C)NP(=O)(OC[C@@]1(C#N)O[C@@H](c2ccc3c(N)ncnn23)[C@H](O)[C@@H]1O)Oc1ccccc1` (stereo partly drawn) [Example 254, 2,2-dimethylbutyl ((((2R,3S,4R,5S)-5-(4-aminopyrrolo[2,1-f][1,2,4]triazin-7-yl)-2-cyano-3,4-dihydroxytetrahydrofuran-2-yl)methoxy)(phenoxy)phosphoryl)-L-alaninate]: the EC50 with HCV replicon 1B (setting [3]) worked out at 368 nM; with HCV replicon 2A (setting [4]), 787 nM; in assay [1] (setting [5]), 797 nM; in assay [2] (setting [8]), 90 nM.

In general, EC50 refers to the concentration needed to bring the measured effect to its halfway point.
